ChEMBL document CHEMBL1150139, “Four new neuroprotective iridoid glycosides from Scrophularia buergeriana roots” (2002)

Legend:
Format in all cases: functional
Cortical neurone [1] = experiment: Neuroprotective activity against Sprague-Dawley rat cortical neurons assessed as glutamate-induced LDH release at 10 uM for 1 hr before glutamate challenge measured after 24 hrs by spectrophotometry
Cortical neurone [2] = experiment: Neuroprotective activity against Sprague-Dawley rat cortical neurons assessed as glutamate-induced LDH release at 1 uM for 1 hr before glutamate challenge measured after 24 hrs by spectrophotometry
Cortical neurone [3] = experiment: Neuroprotective activity against Sprague-Dawley rat cortical neurons assessed as glutamate-induced LDH release at 0.1 uM for 1 hr before glutamate challenge measured after 24 hrs by spectrophotometry

SMILES	Activity (Cortical neurone [1])	Activity (Cortical neurone [2])	Activity (Cortical neurone [3])
COc1ccc(/C=C/C(=O)O[C@@]2(C)C[C@@H](O)[C@]3(O)C=CO[C@@H](O[C@@H]4O[C@H](CO)[C@@H](O)[C@H](O)[C@H]4O)[C@@H]32)cc1	58.9%	61.8%	54.9%
COc1ccc(/C=C\C(=O)O[C@@]2(C)C[C@@H](O)[C@]3(O)C=CO[C@@H](O[C@@H]4O[C@H](CO)[C@@H](O)[C@H](O)[C@H]4O)[C@@H]32)cc1	49.6%	48.2%	40.7%
COc1ccc(/C=C\C(=O)OC[C@H]2O[C@@H](O[C@@H]3OC=C[C@@]4(O)[C@H](O)C[C@](C)(O)[C@@H]34)[C@H](O)[C@@H](O)[C@@H]2O)cc1	46.6%	47.6%	33.3%
COc1ccc(/C=C/C(=O)OC[C@H]2O[C@@H](O[C@@H]3OC=C[C@@]4(O)[C@H](O)C[C@](C)(O)[C@@H]34)[C@H](O)[C@@H](O)[C@@H]2O)cc1	60.3%	60.9%	39.1%
N#Cc1cc2c(cc1[N+](=O)[O-])=NC(=O)C(=O)N=2	61.6%	47.3%	28.1%
NC(CCCP(=O)(O)O)C(=O)O (racemic)	43.6%	27.8%	5.7%
C[C@]12N[C@H](Cc3ccccc31)c1ccccc12.O=C(O)/C=C\C(=O)O [DIZOCILPINE MALEATE]	83.6%	61.5%	31.8%
C[C@]1(O)C[C@@H](O)[C@]2(O)C=CO[C@@H](O[C@H]3O[C@H](CO)[C@@H](O)[C@H](O)[C@H]3O)[C@@H]21 [HARPAGIDE]	46.2%	42.2%	41.4%
C[C@]1(OC(=O)/C=C/c2ccccc2)C[C@@H](O)[C@]2(O)C=CO[C@@H](O[C@@H]3O[C@H](CO)[C@@H](O)[C@H](O)[C@H]3O)[C@@H]21 [HARPAGOSIDE]	44.7%	38.5%	38.2%
C[C@]1(OC(=O)/C=C\c2ccccc2)C[C@@H](O)[C@]2(O)C=CO[C@@H](O[C@@H]3O[C@H](CO)[C@@H](O)[C@H](O)[C@H]3O)[C@@H]21 [Z-harpagoside]	42.5%	38.8%	26.4%
